Test results as given in patent US7820630B2, “Substituted indole-O-glucosides” (Janssen Pharmaceutica NV, priority 2003, dated 2010).

Legend:
[1] = molecular target: T1, human SGLT2 (Homo sapiens, UniProt P31639); experiment: Cell-based assay for sodium-dependent glucose transport (14C-AMG uptake), CHOK-SGLT2; details: CHO-K1 cells stably expressing human SGLT2; for IC50: Na-dependent 14C-AMG uptake
T1 construct: expressed in transfected cells
T1 sequence (P31639 1-672): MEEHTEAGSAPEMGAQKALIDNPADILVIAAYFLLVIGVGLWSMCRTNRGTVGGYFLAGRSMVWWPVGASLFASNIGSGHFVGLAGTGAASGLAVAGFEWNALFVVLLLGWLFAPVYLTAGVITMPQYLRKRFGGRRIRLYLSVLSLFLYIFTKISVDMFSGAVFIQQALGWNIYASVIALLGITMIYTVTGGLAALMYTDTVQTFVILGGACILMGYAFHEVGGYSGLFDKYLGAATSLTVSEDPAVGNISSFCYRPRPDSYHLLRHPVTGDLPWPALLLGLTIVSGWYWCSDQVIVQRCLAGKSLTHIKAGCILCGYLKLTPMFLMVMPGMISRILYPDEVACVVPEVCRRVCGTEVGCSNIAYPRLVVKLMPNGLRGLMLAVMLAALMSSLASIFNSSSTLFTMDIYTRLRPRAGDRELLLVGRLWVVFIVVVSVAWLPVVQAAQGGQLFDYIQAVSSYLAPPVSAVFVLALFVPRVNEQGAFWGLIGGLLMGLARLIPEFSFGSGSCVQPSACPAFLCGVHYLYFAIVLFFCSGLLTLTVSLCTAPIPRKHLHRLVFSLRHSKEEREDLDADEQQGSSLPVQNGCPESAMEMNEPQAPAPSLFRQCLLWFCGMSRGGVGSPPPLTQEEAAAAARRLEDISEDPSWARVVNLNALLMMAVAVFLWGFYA
Experimental: (§1) Cloning of the human SGLT1 and human SGLT2 cDNAs and construction of the mammalian expression vector: The human SGLT1 cDNA (Genbank M24847) was cloned from human small intestine. Human SGLT2 cDNA (Genbank M95549) was cloned from human kidney. Both full cDNAs were subcloned into pcDNA and sequenced to verify the integrity of the construct.
(§2) Generation of CHO-K1 cells stably expressing human SGLT1 or human SGLT2: Transfection of CHO-K1 cells was performed using DMRIE-C reagent (Life Technologies, Gaithersburg, Md.). Transfectants were then selected in the presence of the antibiotic G418 (Gibco-BRL, Grand Island, N.Y.) at 400 μg/ml. Individual clones were then characterized using the functional assay described below.
(§3) Cell-based assay for sodium-dependent glucose transport: Cell lines stably expressing human SGLT1 or SGLT2 were then used for functional analysis of Na+-dependent glucose uptake. Briefly, cells were plated at a density of 65,000 cells per well in a 96-well plate and allowed to grow for 48 hours. Cells were subsequently washed one time with Assay Buffer (50 mM HEPES pH […], 5 mM KCl, 1 mM MgCl2, 1 mM CaCl2 and 137 mM NaCl) and treated with compound in the absence or presence of NaCl for 15 minutes. Cells were then labeled with ^14C-α-methylglucopyranoside (AMG, Sigma, St. Louis, Mo.), a non-metabolizable glucose analog specific for sodium-dependent glucose transporters as previously described (Peng, H. and Lever J. E. Post-transcriptional regulation of Na^+/glucose cotransporter (SGLT1) gene expression in LLC-PK1 cells. J Biol Chem 1995; 270:20536-20542.). After 2 hours the labeled cells were washed three times with ice-cold PBS. After aspiration, cells were solubilized using Microscint 20 (Packard, Meriden, Conn.) and Na-dependent ^14C-AMG uptake was quantified by measuring radioactivity. Plates were counted in a TopCount (Packard, Meriden, Conn.). Results are reported as the % inhibition or IC50 value from a representative experiment. Variability for the functional assay was typically within 20%.

[2] = molecular target: T2, human SGLT1 (Homo sapiens, UniProt P13866); experiment: Cell-based assay for sodium-dependent glucose transport (14C-AMG uptake), CHOK-SGLT1; details: CHO-K1 cells stably expressing human SGLT1; for IC50: Na-dependent 14C-AMG uptake; for inhibition at 10 µM: 10 μM compound, read-out: CHOK-SGLT1 % Inh. @ 10 μM
T2 construct: expressed in transfected cells
T2 sequence (P13866 1-664): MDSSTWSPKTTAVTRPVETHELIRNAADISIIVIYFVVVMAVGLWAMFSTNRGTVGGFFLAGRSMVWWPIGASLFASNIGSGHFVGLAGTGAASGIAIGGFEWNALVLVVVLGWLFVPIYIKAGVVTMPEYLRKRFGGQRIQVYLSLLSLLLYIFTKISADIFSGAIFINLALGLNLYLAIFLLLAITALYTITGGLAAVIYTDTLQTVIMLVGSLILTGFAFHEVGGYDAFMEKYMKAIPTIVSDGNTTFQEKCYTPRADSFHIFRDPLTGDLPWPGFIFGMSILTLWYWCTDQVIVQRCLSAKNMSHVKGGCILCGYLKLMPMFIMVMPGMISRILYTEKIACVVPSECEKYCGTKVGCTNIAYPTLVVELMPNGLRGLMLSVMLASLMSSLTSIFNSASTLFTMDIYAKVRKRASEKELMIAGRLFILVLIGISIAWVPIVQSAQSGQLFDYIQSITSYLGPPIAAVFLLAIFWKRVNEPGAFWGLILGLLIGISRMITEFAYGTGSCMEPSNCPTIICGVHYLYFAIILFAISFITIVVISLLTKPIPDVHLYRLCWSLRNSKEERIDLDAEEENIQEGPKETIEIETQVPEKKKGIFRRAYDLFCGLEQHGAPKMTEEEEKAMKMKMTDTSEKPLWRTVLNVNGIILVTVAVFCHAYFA
Experimental: as §1, §2, §3

SMILES	IC50 [1] [nM]	IC50 [2] [nM]	other results
OC[C@H]1O[C@@H](Oc2cccc3[nH]cc(CCc4ccc5c(c4)CCO5)c23)[C@H](O)[C@@H](O)[C@@H]1O [Example 1, 2-{3-[2-(2,3-Dihydro-benzofuran-5-yl)-ethyl]-1H-indol-4-yloxy} β-D-glucopyranoside]	20	148	–
CC(=O)OC[C@H]1O[C@@H](Oc2cccc3[nH]cc(CCc4ccc5c(c4)CCO5)c23)[C@H](O)[C@@H](O)[C@@H]1O [Example 2, 2-{3-[2-(2,3-Dihydro-benzofuran-5-yl)-ethyl]-1H-indol-4-yloxy}-6-O-acetyl β-D-glucopyranoside]	158	1360	–
Cn1cc(CCc2ccc3c(c2)CCO3)c2c(O[C@@H]3O[C@H](CO)[C@@H](O)[C@H](O)[C@H]3O)cccc21 [Example 3, 2-{3-[2-(2,3-Dihydro-benzofuran-5-yl)-ethyl]-1-methyl-1H-indol-4-yloxy} β-D-glucopyranoside]	62	195	–
OC[C@H]1O[C@@H](Oc2cccc3[nH]cc(CCc4ccc5c(c4)OCO5)c23)[C@H](O)[C@@H](O)[C@@H]1O [Example 4, 2-[3-(2-Benzo[1,3]dioxol-5-yl-ethyl)-1H-indol-4-yloxy] β-D-glucopyranoside]	98	823	–
OC[C@H]1O[C@@H](Oc2cccc3[nH]cc(CCc4ccc5c(c4)OCCO5)c23)[C@H](O)[C@@H](O)[C@@H]1O [Example 5, 2-{3-[2-(2,3-Dihydro-benzo[1,4]dioxin-6-yl)-ethyl]-1H-indol-4-yloxy}-β-D-glucopyranoside]	146	3380	–
OC[C@H]1O[C@@H](Oc2cccc3[nH]cc(CCc4ccc5ccccc5c4)c23)[C@H](O)[C@@H](O)[C@@H]1O [Example 6, 2-[3-(2-Naphthalen-2-yl-ethyl)-1H-indol-4-yloxy]-β-D-glucopyranoside]	149	–	–
COc1ccc(CCc2c[nH]c3cccc(O[C@@H]4O[C@H](CO)[C@@H](O)[C@H](O)[C@H]4O)c23)cc1 [Example 7, 2-{3-[2-(4-Methoxy-phenyl)-ethyl]-1H-indol-4-yloxy}-β-D-glucopyranoside]	142	560	–
CCOc1ccc(CCc2c[nH]c3cccc(O[C@@H]4O[C@H](CO)[C@@H](O)[C@H](O)[C@H]4O)c23)cc1 [Example 8, 2-{3-[2-(4-Ethoxy-phenyl)-ethyl]-1H-indol-4-yloxy}-β-D-glucopyranoside]	183	1340	–
CCc1ccc(CCc2c[nH]c3cccc(O[C@@H]4O[C@H](CO)[C@@H](O)[C@H](O)[C@H]4O)c23)cc1 [Example 9, 2-{3-[2-(4-Ethyl-phenyl)-ethyl]-1H-indol-4-yloxy}-β-D-glucopyranoside]	–	–	inhibition at 1 µM ([1]; 1 μM compound, read-out: CHOK-SGLT2 % Inh. @ 1 μM): 50%; inhibition at 10 µM [2]: 46%
COc1ccc(CCc2c[nH]c3cc(C)cc(O[C@@H]4O[C@H](CO)[C@@H](O)[C@H](O)[C@H]4O)c23)cc1 [Example 10, 2-{3-[2-(4-Methoxy-phenyl)-ethyl]-6-methyl-1H-indol-4-yloxy}-β-D-glucopyranoside]	376	2730	–
CCc1ccc(Cc2c[nH]c3cccc(O[C@@H]4O[C@H](CO)[C@@H](O)[C@H](O)[C@H]4O)c23)cc1 [Example 11, 2-[3-(4-Ethyl-benzyl)-1H-indol-4-yloxy]-β-D-glucopyranoside]	24	1810	–
COc1ccc(-c2c[nH]c3cccc(O[C@@H]4O[C@H](CO)[C@@H](O)[C@H](O)[C@H]4O)c23)cc1 [Example 33, 2-[3-(4-Methoxy-phenyl)-1H-indol-4-yloxy]-β-D-glucopyranoside]	–	–	inhibition at 10 µM ([1]; 10 μM compound, read-out: CHOK-SGLT2 % Inh. @ 10 μM): 37%

More lines, main results first:

IC50 [1] [nM]	IC50 [2] [nM]	SMILES	other results
660	–	CCc1ccc(Cc2c[nH]c3cccc(O[C@@H]4O[C@H](COC(=O)OC)[C@@H](O)[C@H](O)[C@H]4O)c23)cc1 [Example 12, 2-[3-(4-Ethyl-benzyl)-1H-indol-4-yloxy]-6-O-methoxycarbonyl-β-D-glucopyranoside]	–
650	–	CCOC(=O)OC[C@H]1O[C@@H](Oc2cccc3[nH]cc(Cc4ccc(CC)cc4)c23)[C@H](O)[C@@H](O)[C@@H]1O [Example 13, 2-[3-(4-Ethyl-benzyl)-1H-indol-4-yloxy]-6-O-ethoxycarbonyl-β-D-glucopyranoside]	–
206	–	CCCCCC(=O)OC[C@H]1O[C@@H](Oc2cccc3[nH]cc(Cc4ccc(CC)cc4)c23)[C@H](O)[C@@H](O)[C@@H]1O [Example 14, 2-[3-(4-Ethyl-benzyl)-1H-indol-4-yloxy]-6-O-hexanoyl-β-D-glucopyranoside]	inhibition at 10 µM [2]: 71%
53	3880	Cc1ccc(Cc2c[nH]c3cccc(O[C@@H]4O[C@H](CO)[C@@H](O)[C@H](O)[C@H]4O)c23)cc1 [Example 15, 2-[3-(4-Methyl-benzyl)-1H-indol-4-yloxy]-β-D-glucopyranoside]	–
67	–	Cc1ccc(Cc2c[nH]c3cccc(O[C@@H]4O[C@H](CO)[C@@H](O)[C@H](O)[C@H]4O)c23)cc1F [Example 16, 2-[3-(3-Fluoro-4-methyl-benzyl)-1H-indol-4-yloxy]-β-D-glucopyranoside]	inhibition at 3 µM ([2]; 3 μM compound, read-out: CHOK-SGLT1 % Inh. @ 3 μM): 42%
49	–	CCCc1ccc(Cc2c[nH]c3cccc(O[C@@H]4O[C@H](CO)[C@@H](O)[C@H](O)[C@H]4O)c23)cc1 [Example 17, 2-[3-(4-propyl-benzyl)-1H-indol-4-yloxy]-β-D-glucopyranoside]	–
88	–	CC(C)c1ccc(Cc2c[nH]c3cccc(O[C@@H]4O[C@H](CO)[C@@H](O)[C@H](O)[C@H]4O)c23)cc1 [Example 18, 2-[3-(4-isopropyl-benzyl)-1H-indol-4-yloxy]-β-D-glucopyranoside]	inhibition at 10 µM [2]: 49%
101	–	OC[C@H]1O[C@@H](Oc2cccc3[nH]cc(Cc4ccc(-c5ccccc5)cc4)c23)[C@H](O)[C@@H](O)[C@@H]1O [Example 19, 2-(3-Biphenyl-4-ylmethyl-1H-indol-4-yloxy)-β-D-glucopyranoside]	inhibition at 10 µM [2]: 63%
420	–	OC[C@H]1O[C@@H](Oc2cccc3[nH]cc(Cc4ccc(Oc5ccccc5)cc4)c23)[C@H](O)[C@@H](O)[C@@H]1O [Example 26, 2-[3-(4-Phenoxy-benzyl)-1H-indol-4-yloxy]-β-D-glucopyranoside]	–
5110	–	CCc1ccc(Cc2cn(C(C)C)c3cccc(O[C@@H]4O[C@H](CO)[C@@H](O)[C@H](O)[C@H]4O)c23)cc1 [Example 31, 2-[3-(4-Ethyl-benzyl)-1-isopropyl-1H-indol-4-yloxy]-β-D-glucopyranoside]	–
